Assays:
isolated rat heart = assay: Effect on isolated rat heart (Langendorff's method); design: species or system male rats; conditions: 1 × 10^-8 mol/min, n=3, mean ± S.D.; for Coronary Perfusate Flow: ** p < 0.01 as compared with nicorandil
Method: The effect of the compound of the present invention on heart of rats was examined by using the Langendorff's method [test compound: N-cyano-N'-(2-nitroxyethyl)-3-pyridinecarboximidamide (compound (13))]. Hearts were excised from male rats (weighing 250-350 g) and perfused at 80 cmH2 O in a Langendorff fashion. Krebs-Hensaleit bicarbonate solution (pH 7.4, 37° C.) containing an 11 mM glucose which was oxygenated with 95% O2 -5% CO2 gas mixture was used as a perfusate. The left ventricular pressure was recorded by inserting a latex balloon into the left ventricle, and heart rate was determined from the pulse of it. Coronary perfusate flow as also measured with an electromagnetic flowmeter. The experiments were carried out by perfusing a perfusate containing the compound (13) for 10 minutes after an initial equilibration period for 30 minutes. As the control compound, nicorandil which has an effect opening potassium channel and is similar to the test compound in structure was used. The changes in the coronary perfusate flow and the cardiac function (heart rate×left ventricular pressure) caused by these compounds were expressed as percent changes from the preperfusion values of the compound (13) or nicorandil.

isolated heart of rats = assay: Effect on myocardiac injury induced by re-perfusion after ischemia (isolated rat heart); conditions: mean ± SD
Method: The cardiac muscle protecting effect of the compound of the present invention was tested by using the isolated heart of rats [test compound: N-cyano-N'-(2-nitroxyethyl)- 3-pyridinecarboximidamide (compound (13))]. The Langendorff's method was used in the same manner as in the aforementioned Referential Example 1)-6. The isolated heart was perfused with a perfusate for 30 minutes and then with a perfusate containing the test compound for 10 minutes, and perfusion was stopped so that the heart was in the so-called "ischemic state". Pacing was performed during the ischemia. […] Parameters of cardiac function after the onset of re-perfusion was monitored for 30 minutes, and the heart was quickly freezed. The amount of ATP in the heart muscle was extracted with perchloric acid and determined by HPLC. Nicorandil was used as a control.
The recovery rate of the cardiac function (heart rate×left ventricular pressure) after onset of reperfusion was calculated based on the cardiac function prior to the perfusion of the compound (13) and nicorandil as 100%. The amount of ATP in the heart muscle was also determined.

potassium channel [1] = conditions: in words; Trends in Pharmacological Sciences, 8, 283, 1987; cited from earlier work
potassium channel [2] = assay: Potassium channel activating effect (86Rb efflux from rat thoracic aortae); assay type: cell-based, male Wistar rats; conditions: 10^-4 M, 8 minutes, percent of efflux before application
Method: Male Wistar rats (weighing 250-350 g) were dehematized to death, and thoracic aortae were rapidly isolated. The aorta was opened along the longitudinal axis to prepare a flat sheet. The preparation was loaded with ^86 Rb in the Krebs-Ringer solution which contained ^86 Rb in the concentration of 10 μCi/ml and was gassed with 95% 02 5% CO2 at 37° C. for 2 hours. The preparation was then transferred to a Krebs-Ringer solution not containing ^86 Rb, and washed to remove excess radioactivity for 18 minutes by refreshing the solution every 2 minutes. Finally the preparation was placed into a Krebs-Ringer solution containing each compound (10^-4 M) for 8 minutes.
The amount of ^86 Rb efflux from the preparation in each period was determined with a γ-counter.
The increment in efflux rate during the application of the compound was expressed as percent of the efflux before the application of the compound.

| SMILES | Coronary Perfusate Flow (isolated rat heart) | Increment of Efflux (potassium channel [2]) | also measured |
| --- | --- | --- | --- |
| O=C(NCCO[N+](=O)[O-])c1cccnc1 [Nicorandil] | 3.3 ± 5.6 % change |  | Cardiac Function (heart rate×left ventricular pressure) (isolated rat heart): 3.7 ± 6.7 percent change; Recovery rate of cardiac function (isolated heart of rats; 1 × 10^-6 mole/min, n=4): 12.7 ± 8.2% |
| CC1(C)Oc2ccc(C#N)cc2[C@@H](N2CCCC2=O)[C@H]1O (relative stereo) [chromakalim] |  |  | potassium channel activating effect (potassium channel [1]): potassium channel activating effect |
| N#CNC(=NCCO[N+](=O)[O-])c1cccnc1 [Compound (13), N-cyano-N'-(2-nitroxyethyl)-3-pyridinecarboximidamide] | 51.3 ± 3.2 % change | 213.53% | Recovery rate of cardiac function (isolated heart of rats; 1 × 10^-7 mole/min, n=3, ** p < 0.01 vs physiological saline group): 67.5 ± 6.0% |
| N#CNC(=NCCO[N+](=O)[O-])c1ccncc1 [(41), N-cyano-N'-(2-nitroxyethyl)-4-pyridinecarboximidamide] |  | 126.88% |  |
| N#CNC(=NCc1ccccc1)c1cccnc1 [(17), N-cyano-N'-benzyl-3-pyridinecarboximidamide] |  | 135.41% |  |
| N#CNC(=NCCc1ccccc1)c1cccnc1 [(27), N-cyano-N'-(2-phenylethyl)-3-pyridinecarboximidamide] |  | 206.61% |  |
